Measured values as given in patent US10351577B2, “Ether analogues of galiellalactone” (Glactone Pharma Development AB, priority 2015, dated 2019).

Key:
[1] = system: STAT1; test: STAT1 luciferase reporter gene assay in HeLa cells stimulated with IFNg; type: cell-based; details: Homo sapiens, M-HeLa, IFNg overnight
Method: In order to further asses the properties of the ether analogues of galiellalactone, the STAT1 activity was determined for some of the novel analogues.

[2] = system: LNCaP; test: WST-1 cell proliferation assay on LNCaP; type: cell-based; details: Homo sapiens, 72 h, percent of untreated control cells, read-out: Remaining cell proliferation (%) LNCaP
Method: (§1) The functional activity of the example compounds in comparison to galiellalactone was evaluated using a WST-1 proliferation assay (J. Biol. Chem. 2014, 289:15969-15978) on DU145, LNCaP or IL-6 stimulated LNCaP.
(§2) The cells were cultured in 96-well plates (2000 cells/well in 200 μl of medium) and allowed to set for 24 h. The cells were treated with 10 μM of an example compound or galiellalactone for 72 h. Samples were made in triplicate. 20 μl WST-1 solution (Roche Applied Science) was added per well and incubated at 37° C. for 4 h. The absorbance of each well was measured using a scanning multi-well spectrophotometer, ELISA reader at a wavelength of 450 nm and reference wavelength of 690 nm. The results presented in Tables 2 and 3 below are presented as percent of untreated control cells.

[3] = system: LNCaP-IL6; test: WST-1 cell proliferation assay on IL-6 stimulated LNCaP; type: cell-based; details: for activity at 10 µM: Homo sapiens, LNCaP, 72 h, percent of untreated control cells, read-out: Remaining cell proliferation (%) LNCaP-IL6; for Difference in cell proliferation @ 10 μM (%) (Selectivity) Δ LNCaP − LNCaPIL6: LNCaP minus LNCaP-IL6
Method: as §1, §2

[4] = system: DU145; test: WST-1 cell proliferation assay on DU145; type: cell-based; details: for activity at 10 µM: Homo sapiens, DU-145, 72 h, percent of untreated control cells, read-out: Remaining cell proliferation (%) DU145; for Difference in cell proliferation @ 10 μM (%) (Selectivity) Δ LNCaP − DU145: LNCaP minus DU145
Method: as §1, §2

[5] = system: DU145; test: WST-1 cell proliferation assay on DU145; type: cell-based; details: for IC50: Homo sapiens, DU-145, dose response study, DU145
[6] = system: LNCaP-IL6; test: WST-1 cell proliferation assay on IL-6 stimulated LNCaP; type: cell-based; details: Homo sapiens, dose response study
[7] = Comparative pharmacokinetic study, single oral dose, plasma by LC-MS/MS; type: in vivo; details: mouse, CD1 mice, single oral gavage 10 mg/kg
Method: A pharmacokinetic study was performed in CD1 mice to establish plasma exposure following administration of single oral doses of galiellalactone and example 20. Sample analysis was by LC-MS/MS.
Dose solutions were prepared at a drug concentration of 0.5 mg/mL in 5% DMSO in 50 mM citrate buffer (citric acid/sodium citrate pH 4.0) and administered as a 20 mL/kg oral gavage (10 mg/kg).
AUC denotes the plasma exposure of the compound measured with time. More specifically, AUC 0-t is the area under the plasma drug concentration/time curve from 0 minutes to last quantifiable data point. AUC 0-∞ is the area under the plasma drug concentration/time curve from 0 minutes extrapolated to infinity.

[8] = system: IL-6/STAT3 signaling; details: cited from earlier work

Question: For `Cc1ccc(COC23C4=CC(C)CC2CCC3OC4=O)cn1` (stereo in doubt) [Example 1, (4R,5aS,7aS,7bR)-5,5a,6,7,7a,7b-hexahydro-7b-[(6-methyl-3-pyridinyl)methoxy]-4-methyl-indeno[1,7-bc]furan-2(4H)-one], which inhibition at 10 µM [1] is on record?
Answer: 14%

Question: And the activity at 10 µM [2]?
Answer: 63.2%

Question: And the activity at 10 µM [3]?
Answer: 8.6%

Question: What about the “Difference in cell proliferation @ 10 μM (%) (Selectivity) Δ LNCaP − LNCaPIL6” value [3] of the same molecule?
Answer: 54.6%

Question: And the activity at 10 µM [4]?
Answer: 12.9%

Question: And the “Difference in cell proliferation @ 10 μM (%) (Selectivity) Δ LNCaP − DU145” value (from here on “Difference … (%) (Selectivity) Δ LNCaP − DU145”) [4]?
Answer: 50.3%

Question: For `CC1C=C2C(=O)OC3CCC(C1)C23OCc1ccc(Oc2ccccc2)nc1` (stereo in doubt) [Example 2, (4R,5aS,7aS,7bR)-5,5a,6,7,7a,7b-hexahydro-7b-[(6-phenoxy-3-pyridinyl)methoxy]-4-methyl-indeno[1,7-bc]furan-2(4H)-one], which inhibition at 10 µM [1] is on record?
Answer: 1%

Question: What about the activity at 10 µM [2] of the same molecule?
Answer: 86%

Question: What about the activity at 10 µM [3] of the same molecule?
Answer: 18%

Question: And the “Difference in cell proliferation @ 10 μM (%) (Selectivity) Δ LNCaP − LNCaPIL6” value [3]?
Answer: 68%

Question: And the activity at 10 µM [4]?
Answer: 36.1%

Question: What about the “Difference … (%) (Selectivity) Δ LNCaP − DU145” value [4] of the same molecule?
Answer: 49.9%

Question: What does the source list for `CC1C=C2C(=O)OC3CCC(C1)C23OCCc1cccnc1` (stereo in doubt) [Example 3, (4R,5aS,7aS,7bR)-5,5a,6,7,7a,7b-hexahydro-7b-[2-(3-pyridinyl)-ethoxy]-4-methyl-indeno[1,7-bc]furan-2(4H)-one]?
Answer: inhibition at 10 µM [1]: 38%; activity at 10 µM [2]: 68.6%; activity at 10 µM [3]: 8%; Difference in cell proliferation @ 10 μM (%) (Selectivity) Δ LNCaP − LNCaPIL6 [3]: 60.6%; activity at 10 µM [4]: 18.7%; Difference in cell proliferation @ 10 μM (%) (Selectivity) Δ LNCaP − DU145 [4]: 49.9%

Question: For `Cc1cnc(COC23C4=CC(C)CC2CCC3OC4=O)cn1` (stereo in doubt) [Example 4, (4R,5aS,7aS,7bR)-5,5a,6,7,7a,7b-hexahydro-7b-[(5-methyl-2-pyrazinyl)methoxy]-4-methyl-indeno[1,7-bc]furan-2(4H)-one], which inhibition at 10 µM [1] is on record?
Answer: 12%

Question: And the activity at 10 µM [2]?
Answer: 55.5%

Question: And the activity at 10 µM [3]?
Answer: 10.7%

Question: What about the “Difference in cell proliferation @ 10 μM (%) (Selectivity) Δ LNCaP − LNCaPIL6” value [3] of the same molecule?
Answer: 44.8%

Question: And the activity at 10 µM [4]?
Answer: 11.4%

Question: And the “Difference … (%) (Selectivity) Δ LNCaP − DU145” value [4]?
Answer: 44.1%

Question: With `COc1ccnc(COC23C4=CC(C)CC2CCC3OC4=O)c1` (stereo in doubt) [Example 5, (4R,5aS,7aS,7bR)-5,5a,6,7,7a,7b-hexahydro-7b-[(4-methoxy-2-pyridinyl)methoxy]-4-methyl-indeno[1,7-bc]furan-2(4H)-one] as the molecule, how does the inhibition at 10 µM [1] read?
Answer: 16%

Question: And the activity at 10 µM [2]?
Answer: 86%

Question: What about the activity at 10 µM [3] of the same molecule?
Answer: 15%

Question: And the “Difference in cell proliferation @ 10 μM (%) (Selectivity) Δ LNCaP − LNCaPIL6” value [3]?
Answer: 71%

Question: What about the activity at 10 µM [4] of the same molecule?
Answer: 19%

Question: What about the “Difference … (%) (Selectivity) Δ LNCaP − DU145” value [4] of the same molecule?
Answer: 67%

Question: Which results are given for `COC(=O)c1cccc(COC23C4=CC(C)CC2CCC3OC4=O)n1` (stereo in doubt) [Example 6, (4R,5aS,7aS,7bR)-5,5a,6,7,7a,7b-hexahydro-7b-[(6-methoxycarbonyl-2-pyridinyl)methoxy]-4-methyl-indeno[1,7-bc]furan-2(4H)-one]?
Answer: activity at 10 µM [2]: 65.6%; activity at 10 µM [3]: 15.9%; Difference in cell proliferation @ 10 μM (%) (Selectivity) Δ LNCaP − LNCaPIL6 [3]: 49.7%; activity at 10 µM [4]: 16.6%; Difference in cell proliferation @ 10 μM (%) (Selectivity) Δ LNCaP − DU145 [4]: 49%

Question: Which results are given for `COc1ncccc1COC12C3=CC(C)CC1CCC2OC3=O` (stereo in doubt) [Example 7, (4R,5aS,7aS,7bR)-5,5a,6,7,7a,7b-hexahydro-7b-[(2-methoxy-3-pyridinyl)methoxy]-4-methyl-indeno[1,7-bc]furan-2(4H)-one]?
Answer: activity at 10 µM [2]: 59.3%; activity at 10 µM [3]: 7%; Difference in cell proliferation @ 10 μM (%) (Selectivity) Δ LNCaP − LNCaPIL6 [3]: 52.3%; activity at 10 µM [4]: 16.7%; Difference in cell proliferation @ 10 μM (%) (Selectivity) Δ LNCaP − DU145 [4]: 42.6%

Question: Which activity at 10 µM [2] does the source give for `Cc1ncccc1COC12C3=CC(C)CC1CCC2OC3=O` (stereo in doubt) [Example 8, (4R,5aS,7aS,7bR)-5,5a,6,7,7a,7b-hexahydro-7b-[(2-methyl-3-pyridinyl)methoxy]-4-methyl-indeno[1,7-bc]furan-2(4H)-one] here?
Answer: 54.5%

Question: What about the activity at 10 µM [3] of the same molecule?
Answer: 3%

Question: What about the “Difference in cell proliferation @ 10 μM (%) (Selectivity) Δ LNCaP − LNCaPIL6” value [3] of the same molecule?
Answer: 51.5%

Question: What about the activity at 10 µM [4] of the same molecule?
Answer: 10%

Question: What about the “Difference … (%) (Selectivity) Δ LNCaP − DU145” value [4] of the same molecule?
Answer: 44.5%

Question: Which “Selectivity at IC90 against DU145 and LNCaP-IL6 cell proliferation over LNCaP proliferation” value ([5]; FIG. 1B dose response curves) does the source give for `Cc1ccc(COC23C4=CC(C)(F)CC2CCC3OC4=O)cn1` (stereo in doubt) [Example 26, (4R,5aS,7aS,7bR)-5,5a,6,7,7a,7b-hexahydro-7b-[(6-methyl-3-pyridinyl)methoxy]-4-fluoro-4-methyl-indeno[1,7-bc]furan-2(4H)-one] here?
Answer: very good selectivity

Question: What about the IC50 [5] of the same molecule?
Answer: 1530 nM

Question: What about the IC50 [6] of the same molecule?
Answer: 1060 nM

Question: Which activity at 10 µM [2] does the source give for `C[C@@H]1C=C2C(=O)O[C@@H]3CCC(C1)[C@]23OCc1ccc(NC(=O)C(C)(C)C)nc1` (stereo partly drawn) [Example 9, (4R,5aS,7aS,7bR)-5,5a,6,7,7a,7b-hexahydro-7b-[(6-[(2,2-dimethyl-1-oxopropyl)amino]-3-pyridinyl]methoxy]-4-methyl-indeno[1,7-b]c furan-2(4H)-one] here?
Answer: 67.6%

Question: And the activity at 10 µM [3]?
Answer: 2.8%

Question: And the “Difference in cell proliferation @ 10 μM (%) (Selectivity) Δ LNCaP − LNCaPIL6” value [3]?
Answer: 64.8%

Question: And the activity at 10 µM [4]?
Answer: 9.7%

Question: And the “Difference … (%) (Selectivity) Δ LNCaP − DU145” value [4]?
Answer: 57.9%

Question: What does the source list for `C[C@@H]1C=C2C(=O)O[C@@H]3CCC(C1)[C@]23OCc1ccc(N2CCOCC2)nc1` (stereo partly drawn) [Example 15, (4R,5aS,7aS,7bR)-5,5a,6,7,7a,7b-hexahydro-7b-[(6-(N-morpholino)-3-pyridinyl)methoxy]-4-methyl-indeno[1,7-bc]furan-2(4H)-one]?
Answer: inhibition at 10 µM [1]: 53%; activity at 10 µM [2]: 76.1%; activity at 10 µM [3]: 6.5%; Difference in cell proliferation @ 10 μM (%) (Selectivity) Δ LNCaP − LNCaPIL6 [3]: 69.6%; activity at 10 µM [4]: 9.6%; Difference in cell proliferation @ 10 μM (%) (Selectivity) Δ LNCaP − DU145 [4]: 66.6%

Question: For `C[C@@H]1C=C2C(=O)O[C@@H]3CC[C@H](C1)[C@]23O` [Galiellalactone, (−)-Galiellalactone], which inhibition at 10 µM [1] is on record?
Answer: 62%

Question: And the activity at 10 µM [2]?
Answer: 43.6%

Question: What about the AUC(0-t) ([7]; 0 min to last quantifiable data point) of the same molecule?
Answer: 82 ng·h/mL

Question: What about the AUC(0-inf) ([7]; extrapolated to infinity) of the same molecule?
Answer: 87 ng·h/mL

Question: What about the half-life ([7]; read-out: Apparent half-life (converted)) of the same molecule?
Answer: 1.2 h

Question: What about the activity at 10 µM [3] of the same molecule?
Answer: 4.7%

Question: And the “Difference in cell proliferation @ 10 μM (%) (Selectivity) Δ LNCaP − LNCaPIL6” value [3]?
Answer: 38.9%

Question: What about the IC50 [5] of the same molecule?
Answer: 2520 nM

Question: What about the “Inhibition of IL-6/STAT3 signaling” value [8] of the same molecule?
Answer: submicromolar

Question: And the IC50 [6]?
Answer: 1160 nM

Question: And the activity at 10 µM [4]?
Answer: 10.8%

Question: And the “Difference … (%) (Selectivity) Δ LNCaP − DU145” value [4]?
Answer: 32.8%
